In PubChem BioAssay AID1963858 (Molecular Pharmacology Branch, DTP, NCI, 2024):

System: HOP-62 multicell spheroids with HUVEC/MSC, viability
Test: Anticancer human tumor HOP-62 cell line growth inhibition [KRAS2];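 also: viability read after a week of compound exposure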;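 as to viability, T/C: 100% = DMSO vehicle-treated spheroids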
Settings: for IC50: curve of first compound; for viability, T/C: stronger effect = lower value
Outline: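 KRAS-mutant tumor cells were grown as spheroids with HUVEC endothelial cells and human MSCs as stroma. Targeted agents were tested alone and with KRAS pathway inhibitors. Doses started at or near clinical Cmax, or 10 microM, descending half-log.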

[1] = second compound 0.1 µM, first compound 0.000316 µM
[2] = second compound 0.1 µM, first compound 0.001 µM
[3] = second compound 0.1 µM, first compound 0.00316 µM
[4] = second compound 0.1 µM, first compound 0.01 µM
[5] = second compound 0.1 µM, first compound 0.0316 µM
[6] = second compound 0.316 µM, first compound 0.000316 µM
[7] = second compound 0.316 µM, first compound 0.001 µM
[8] = second compound 0.316 µM, first compound 0.00316 µM
[9] = second compound 0.316 µM, first compound 0.01 µM
[10] = second compound 0.316 µM, first compound 0.0316 µM
[11] = second compound 1 µM, first compound 0.000316 µM
[12] = second compound 1 µM, first compound 0.001 µM
[13] = second compound 1 µM, first compound 0.00316 µM
[14] = second compound 1 µM, first compound 0.01 µM
[15] = second compound 1 µM, first compound 0.0316 µM
[16] = second compound 3.16 µM, first compound 0.000316 µM
[17] = second compound 3.16 µM, first compound 0.001 µM
[18] = second compound 3.16 µM, first compound 0.00316 µM
[19] = second compound 3.16 µM, first compound 0.01 µM
[20] = second compound 3.16 µM, first compound 0.0316 µM
[21] = second compound 10 µM, first compound 0.000316 µM
[22] = second compound 10 µM, first compound 0.001 µM
[23] = second compound 10 µM, first compound 0.00316 µM
[24] = second compound 10 µM, first compound 0.01 µM
[25] = second compound 10 µM, first compound 0.0316 µM
[26] = second compound 0.1 µM, first compound 0.1 µM
[27] = second compound 0.1 µM, first compound 0.316 µM
[28] = second compound 0.1 µM, first compound 1 µM
[29] = second compound 0.1 µM, first compound 3.16 µM
[30] = second compound 0.316 µM, first compound 0.1 µM
[31] = second compound 0.316 µM, first compound 0.316 µM
[32] = second compound 0.316 µM, first compound 1 µM
[33] = second compound 0.316 µM, first compound 3.16 µM
[34] = second compound 1 µM, first compound 0.1 µM
[35] = second compound 1 µM, first compound 0.316 µM
[36] = second compound 1 µM, first compound 1 µM
[37] = second compound 1 µM, first compound 3.16 µM
[38] = second compound 3.16 µM, first compound 0.1 µM
[39] = second compound 3.16 µM, first compound 0.316 µM
[40] = second compound 3.16 µM, first compound 1 µM
[41] = second compound 3.16 µM, first compound 3.16 µM
[42] = second compound 10 µM, first compound 0.1 µM
[43] = second compound 10 µM, first compound 0.316 µM
[44] = second compound 10 µM, first compound 1 µM
[45] = second compound 10 µM, first compound 3.16 µM
[46] = second compound 0.1 µM, first compound 10 µM
[47] = second compound 0.316 µM, first compound 10 µM
[48] = second compound 1 µM, first compound 10 µM
[49] = second compound 3.16 µM, first compound 10 µM
[50] = second compound 10 µM, first compound 10 µM

CC(=O)Nc1cccc(-n2c(=O)n(C3CC3)c(=O)c3c(Nc4ccc(I)cc4F)n(C)c(=O)c(C)c32)c1 + CNCc1ccccc1-c1csc(C(C)Nc2nc(C)nc3cc(OC)c(OC)cc23)c1
IC50 (second compound 0.1 µM): 4.3 nM
IC50 (second compound 0.316 µM): 2.84 nM
IC50 (second compound 1 µM): 2.32 nM
IC50 (second compound 3.16 µM): < 0.1 nM
IC50 (second compound 10 µM): < 0.1 nM
viability, T/C (second compound 0.1 µM, first compound 0.0001 µM): 104%
viability, T/C [1]: 97.2%
viability, T/C [2]: 81.6%
viability, T/C [3]: 60.1%
viability, T/C [4]: 28%
viability, T/C [5]: 27.4%
viability, T/C (second compound 0.316 µM, first compound 0.0001 µM): 106%
viability, T/C [6]: 97.4%
viability, T/C [7]: 77%
viability, T/C [8]: 48%
viability, T/C [9]: 30.1%
viability, T/C [10]: 29.9%
viability, T/C (second compound 1 µM, first compound 0.0001 µM): 91.2%
viability, T/C [11]: 92.8%
viability, T/C [12]: 74.1%
viability, T/C [13]: 41.4%
viability, T/C [14]: 26.8%
viability, T/C [15]: 25.7%
viability, T/C (second compound 3.16 µM, first compound 0.0001 µM): 7.87%
viability, T/C [16]: 0.24%
viability, T/C [17]: 3.22%
viability, T/C [18]: 0.35%
viability, T/C [19]: 0.07%
viability, T/C [20]: 0.24%
viability, T/C (second compound 10 µM, first compound 0.0001 µM): 0.13%
viability, T/C [21]: 0.15%
viability, T/C [22]: 2.8%
viability, T/C [23]: 0.12%
viability, T/C [24]: 2.27%
viability, T/C [25]: 0.31%

CC(=O)OC12COC1CC(O)C1(C)C(=O)C(O)C3=C(C)C(OC(=O)C(O)C(NC(=O)OC(C)(C)C)c4ccccc4)CC(O)(C(OC(=O)c4ccccc4)C21)C3(C)C (stereo not given) + CNCc1ccccc1-c1csc(C(C)Nc2nc(C)nc3cc(OC)c(OC)cc23)c1
IC50 (second compound 0.1 µM): < 10 nM
IC50 (second compound 0.316 µM): < 10 nM
IC50 (second compound 1 µM): < 10 nM
IC50 (second compound 3.16 µM): < 10 nM
IC50 (second compound 10 µM): < 10 nM
viability, T/C [4]: 36.4%
viability, T/C [5]: 35.2%
viability, T/C [26]: 38.1%
viability, T/C [27]: 35%
viability, T/C [28]: 34.9%
viability, T/C [29]: 45.7%
viability, T/C [9]: 34.3%
viability, T/C [10]: 33%
viability, T/C [30]: 38.1%
viability, T/C [31]: 31.7%
viability, T/C [32]: 29.2%
viability, T/C [33]: 37%
viability, T/C [14]: 34%
viability, T/C [15]: 28.4%
viability, T/C [34]: 28%
viability, T/C [35]: 33.6%
viability, T/C [36]: 39.8%
viability, T/C [37]: 42.4%
viability, T/C [19]: 26.4%
viability, T/C [20]: 0.11%
viability, T/C [38]: 0.07%
viability, T/C [39]: 0.09%
viability, T/C [40]: 0.11%
viability, T/C [41]: 34.9%
viability, T/C [24]: 3.3%
viability, T/C [25]: 1.3%
viability, T/C [42]: 0.1%
viability, T/C [43]: 0.14%
viability, T/C [44]: 30.4%
viability, T/C [45]: 2.73%

CN(C)C/C=C/C(=O)Nc1cc2c(Nc3ccc(F)c(Cl)c3)ncnc2cc1O[C@H]1CCOC1 + CNCc1ccccc1-c1csc(C(C)Nc2nc(C)nc3cc(OC)c(OC)cc23)c1
IC50 (second compound 0.1 µM): > 100 nM
IC50 (second compound 0.316 µM): > 100 nM
IC50 (second compound 1 µM): > 100 nM
IC50 (second compound 3.16 µM): 0.515 nM
IC50 (second compound 10 µM): < 0.316 nM
viability, T/C [1]: 110%
viability, T/C [2]: 106%
viability, T/C [3]: 111%
viability, T/C [4]: 115%
viability, T/C [5]: 111%
viability, T/C [26]: 96.5%
viability, T/C [6]: 124%
viability, T/C [7]: 115%
viability, T/C [8]: 110%
viability, T/C [9]: 109%
viability, T/C [10]: 113%
viability, T/C [30]: 108%
viability, T/C [11]: 101%
viability, T/C [12]: 105%
viability, T/C [13]: 101%
viability, T/C [14]: 99.8%
viability, T/C [15]: 85.8%
viability, T/C [34]: 101%
viability, T/C [16]: 73.8%
viability, T/C [17]: 16.4%
viability, T/C [18]: 19.2%
viability, T/C [19]: 6.17%
viability, T/C [20]: 31.4%
viability, T/C [38]: 14%
viability, T/C [21]: 0.18%
viability, T/C [22]: 0.14%
viability, T/C [23]: 0.15%
viability, T/C [24]: 0.15%
viability, T/C [25]: 0.16%
viability, T/C [42]: 1.46%

COC(=O)c1ccc2c(C(=Nc3ccc(N(C)C(=O)CN4CCN(C)CC4)cc3)c3ccccc3)c(O)[nH]c2c1 + CNCc1ccccc1-c1csc(C(C)Nc2nc(C)nc3cc(OC)c(OC)cc23)c1
IC50 (second compound 0.1 µM): 246 nM
IC50 (second compound 0.316 µM): 49.3 nM
IC50 (second compound 1 µM): < 31.6 nM
IC50 (second compound 3.16 µM): < 31.6 nM
IC50 (second compound 10 µM): < 31.6 nM
viability, T/C [5]: 68.1%
viability, T/C [26]: 64.7%
viability, T/C [27]: 40.1%
viability, T/C [28]: 34.6%
viability, T/C [29]: 29.5%
viability, T/C [46]: 5.99%
viability, T/C [10]: 48.3%
viability, T/C [30]: 54.6%
viability, T/C [31]: 35.6%
viability, T/C [32]: 31.4%
viability, T/C [33]: 16.1%
viability, T/C [47]: 3.78%
viability, T/C [15]: 43%
viability, T/C [34]: 32.2%
viability, T/C [35]: 38.6%
viability, T/C [36]: 29.8%
viability, T/C [37]: 0.17%
viability, T/C [48]: 0.9%
viability, T/C [20]: 12.6%
viability, T/C [38]: 0.12%
viability, T/C [39]: 0.09%
viability, T/C [40]: 0.09%
viability, T/C [41]: 0.07%
viability, T/C [49]: 0.1%
viability, T/C [25]: 0.12%
viability, T/C [42]: 0.16%
viability, T/C [43]: 45.8%
viability, T/C [44]: 0.09%
viability, T/C [45]: 0.08%
viability, T/C [50]: 0.35%

COc1cc(Nc2ncc3c(n2)-c2ccc(Cl)cc2C(c2c(F)cccc2OC)=NC3)ccc1C(=O)O + CNCc1ccccc1-c1csc(C(C)Nc2nc(C)nc3cc(OC)c(OC)cc23)c1
IC50 (second compound 0.1 µM): 274 nM
IC50 (second compound 0.316 µM): 143 nM
IC50 (second compound 1 µM): 39.6 nM
IC50 (second compound 3.16 µM): < 31.6 nM
IC50 (second compound 10 µM): < 31.6 nM
viability, T/C [5]: 69.4%
viability, T/C [26]: 57.7%
viability, T/C [27]: 44.5%
viability, T/C [28]: 43.8%
viability, T/C [29]: 30.5%
viability, T/C [46]: 19.6%
viability, T/C [10]: 59.5%
viability, T/C [30]: 54.2%
viability, T/C [31]: 42.4%
viability, T/C [32]: 37%
viability, T/C [33]: 27.3%
viability, T/C [47]: 20.3%
viability, T/C [15]: 51.4%
viability, T/C [34]: 46.3%
viability, T/C [35]: 37.3%
viability, T/C [36]: 34.6%
viability, T/C [37]: 27.4%
viability, T/C [48]: 17.9%
viability, T/C [20]: 15.7%
viability, T/C [38]: 0.89%
viability, T/C [39]: 10.6%
viability, T/C [40]: 4.93%
viability, T/C [41]: 0.62%
viability, T/C [49]: 4.15%
viability, T/C [25]: 0.12%
viability, T/C [42]: 0.2%
viability, T/C [43]: 1.86%
viability, T/C [44]: 0.11%
viability, T/C [45]: 2.34%
viability, T/C [50]: 0.17%

O=C(c1cc(Cc2n[nH]c(=O)c3ccccc23)ccc1F)N1CCN(C(=O)C2CC2)CC1 + CNCc1ccccc1-c1csc(C(C)Nc2nc(C)nc3cc(OC)c(OC)cc23)c1
IC50 (second compound 0.1 µM): 7080 nM
IC50 (second compound 0.316 µM): 6810 nM
IC50 (second compound 1 µM): 6100 nM
IC50 (second compound 3.16 µM): < 31.6 nM
IC50 (second compound 10 µM): < 31.6 nM
viability, T/C [5]: 105%
viability, T/C [26]: 106%
viability, T/C [27]: 97.6%
viability, T/C [28]: 86%
viability, T/C [29]: 65.7%
viability, T/C [46]: 43.3%
viability, T/C [10]: 85.7%
viability, T/C [30]: 84.3%
viability, T/C [31]: 83.2%
viability, T/C [32]: 85.3%
viability, T/C [33]: 65.9%
viability, T/C [47]: 42.1%
viability, T/C [15]: 84.7%
viability, T/C [34]: 85.3%
viability, T/C [35]: 78.9%
viability, T/C [36]: 83.2%
viability, T/C [37]: 59.5%
viability, T/C [48]: 42.8%
viability, T/C [20]: 35.1%
viability, T/C [38]: 35.4%
viability, T/C [39]: 28.4%
viability, T/C [40]: 0.6%
viability, T/C [41]: 42.3%
viability, T/C [49]: 0.43%
viability, T/C [25]: 0.17%
viability, T/C [42]: 0.21%
viability, T/C [43]: 29.1%
viability, T/C [44]: 0.15%
viability, T/C [45]: 0.14%
viability, T/C [50]: 1.69%
